Laboratory results as given in paper PMC3492248, “Src Kinase Regulation in Progressively Invasive Cancer” (PLoS ONE, 2012).
Where two headings read alike, the source gives them in different places. Where a SMILES comes first, the peptide text is derived from it. [ ]: non-standard residue; d: D form. The star is where a group is joined. 5FAM = O=C1OC2(c3ccc(O)cc3Oc3cc(O)ccc32)c2ccc(C(=O)*)cc21; Orn = NCCC[C@H](N)C(=O)O

Assay: Stability of Src peptide substrate 1 in prostate cell lysates
Type: in vitro ADME, human
Settings: for % Remaining Parent / remaining at 1 h: M-PER lysis buffer, no ATP/Mg2+, 1 h; for remaining at 1 h: read-out: % Remaining Parent
Method: Peptides commonly suffer protease-catalyzed degradation in cells as well as in cell lysates. Consequently, prior to examining Src kinase-catalyzed phosphorylation of peptide 1 with lysates, we monitored the stability of the peptide as a function of time. Cells were lysed using Pierce’s M-PER mammalian lysis buffer and, in the absence of ATP and Mg^2+ (i.e. no observable kinase activity), the lysate was added to peptide 1. Only approximately 10% of the peptide is degraded after 1 h (Table S1). Since the phosphorylation rate is measured within 10 min of incubation (Fig. S1), the peptide is sufficiently stable for our needs.
Capillary electrophoresis was performed on a ProteomeLab PA800 system equipped with a laser-induced fluorescence (LIF) detector (Beckman Coulter). The LIF was excited using the 488 nm argon laser. A fused-silica capillary (30/20 cm total/effective length, 50/360 µm inner/outer diameter) was used for separation (Polymicro Technologies). Prior to installation, capillaries were pretreated with 0.1 M NaOH for 12 h, distilled water for 1 h, 0.1 M HCl for 6 h and water again for 12 h. The samples were hydrodynamically injected and separated at 25°C at a constant voltage of 12 kV. The running buffer was 100 mM Borate/100 mM SDS buffer at pH 7.7. Before each run, the capillary was rinsed with 0.1 M NaOH, distilled water, and then the running buffer for 2 min under 20 psi pressure. Data was collected and analyzed using 32 Karat Software (Version 8.0, Beckman Coulter).
All cell lines were acquired from ATCC and grown in a humidified incubator at 37°C with 5% CO2. PZ-HPV-7, RWPE1, WPE1-NA22, WPE1-NB14, WPE1-NB11 and WPE1-NB26 cell lines were cultured in Keratinocyte Serum Free Medium (K-SFM) supplied with 0.05 mg/mL bovine pituitary extract (BPE) and 5 ng/mL epidermal growth factor (EGF) (all provided as a kit from Invitrogen), and 1% penicillin/streptomycin (P/S; Invitrogen). CWR22Rv1 cells were cultured in RPMI-1640 medium (Invitrogen) supplemented with 10% heat-inactivated fetal bovine serum (HI-FBS, Invitrogen) and 1% P/S. DU145 cells were cultured in Eagle’s Minimum Essential Medium (EMEM, ATCC) supplemented with 10% HI-FBS and 1% P/S. PC3 cells were cultured in F-12K medium (ATCC) supplemented with 10% HI-FBS and 1% P/S. Cell lysates were prepared as follows: confluent cells were first trypsinized and collected into 15 mL tubes in the presence of FBS-containing buffer or medium and then washed (3X) with ice cold DPBS buffer. The cells were lysed using M-PER mammalian protein extraction reagent mixed with 5/100 (v/v) Halt protease and phosphatase inhibitor cocktail EDTA-free (Thermo Fisher Scientific) for 10 min at 4°C. Cell debris was removed by centrifuging samples at 14,000 x g for 10 min at 4°C. The total protein concentrations were determined using Dc Protein assay (Bio-Rad).
Cell Line % Remaining Parent

## CC[C@H](C)[C@H](NC(=O)[C@H](CCC(=O)O)NC(=O)[C@H](CCC(=O)O)NC(=O)[C@H](CCC(=O)O)NC(=O)[C@H](CCCNC(C)=O)NC(=O)c1ccc2c(c1)C(=O)OC21c2ccc(O)cc2Oc2cc(O)ccc21)C(=O)N[C@@H](Cc1ccc(O)cc1)C(=O)NCC(=O)N[C@@H](CCC(=O)O)C(=O)N[C@@H](Cc1ccccc1)C(=O)N[C@@H](CCCNC(C)=O)C(N)=O [peptide 1] (5FAM-[Orn](Ac)EEEIYGEF[Orn](Ac)-NH2)
DU145 cell lysate
  % Remaining Parent: 92.9 ± 0.5%
PC3 cell lysate
  % Remaining Parent: 89.2 ± 2.2%
WPE1-NA22 cell lysate
  % Remaining Parent: 92.4 ± 0.8%
WPE1-NB14 cell lysate
  % Remaining Parent: 91.4 ± 1.2%
WPE1-NB26 cell lysate
  % Remaining Parent: 91.0 ± 1.5%
human, prostate cell lysates, prostate cell lysate (M-PER mammalian lysis buffer), absence of ATP and Mg2+, after 1 h, read-out: peptide degraded
  metabolised at 1 h: ~10%
human, PZ-HPV-7 cell lysate
  remaining at 1 h: 92.4 ± 0.2%
human, RWPE1 cell lysate
  remaining at 1 h: 91 ± 0.6%
human, WPE1-NB11 cell lysate
  remaining at 1 h: 89.8 ± 1.5%
